Data from PubChem BioAssay AID330 (DTP/NCI, 2004).
“And” between values parts separate entries of the source, which are not always exact repeats. Equal entries are not always repeated. Toxic doses and inconclusive results are not listed.

Test system: P388 leukemia ip, CD2F1 mice, survival T/C
Test: NCI In Vivo Anticancer Drug Screen. Data for tumor model P388 Leukemia (intraperitoneal) in CD2F1 (CDF1) mice
Conditions: endpoint: median survival time, higher = longer survival
Method in brief: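 Mice carrying the transplanted tumor received test compound or vehicle. Survival was recorded in each group, and the value is the treated-group measurement divided by that of the vehicle-treated control group.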

[1] = dose: 50.0 mg/kg/injection, schedule: Q01DX005 (ip), vehicle: saline with Tween-80
[2] = dose: 100.0 mg/kg/injection, schedule: Q01DX005 (ip), vehicle: saline with Tween-80
[3] = dose: 200.0 mg/kg/injection, schedule: Q01DX005 (ip), vehicle: saline with Tween-80
[4] = dose: 100.0 mg/kg/injection, schedule: Q01DX001 (ip), vehicle: saline
[5] = dose: 50.0 mg/kg/injection, schedule: Q01DX009 (ip), vehicle: saline with Tween-80
[6] = dose: 100.0 mg/kg/injection, schedule: Q01DX009 (ip), vehicle: saline with Tween-80

## O=c1[nH]nc(-c2ccc(Cl)cc2)c2cc(Cl)c(Cl)cc12
dose: 3.12 mg/kg/injection, schedule: Q04DX002 (ip), vehicle: distilled water + Tween-80
  T/C: 90 % of control
dose: 6.25 mg/kg/injection, schedule: Q04DX002 (ip), vehicle: distilled water + Tween-80
  T/C: 96 % of control
dose: 12.5 mg/kg/injection, schedule: Q04DX002 (ip), vehicle: distilled water + Tween-80
  T/C: 93 % of control
dose: 25.0 mg/kg/injection, schedule: Q04DX002 (ip), vehicle: distilled water + Tween-80
  T/C: 93 % of control
dose: 50.0 mg/kg/injection, schedule: Q04DX002 (ip), vehicle: distilled water + Tween-80
  T/C: 90 % of control
dose: 100.0 mg/kg/injection, schedule: Q04DX002 (ip), vehicle: distilled water + Tween-80
  T/C: 95 % of control
dose: 200.0 mg/kg/injection, schedule: Q04DX002 (ip), vehicle: distilled water + Tween-80
  T/C: 102 % of control

## CCC1(C#N)N=C(c2ccccc2)c2ccccc2N1C(=O)Oc1ccccc1 (stereo unspecified)
[1]
  T/C: 89 % of control
[2]
  T/C: 98 % of control
[3]
  T/C: 95 % of control

## O=C(OCCO)N1CCN(C(=O)OCCO)CC1
dose: 50.0 mg/kg/injection, schedule: Q01DX009 (ip), vehicle: saline
  T/C: 101 % of control
dose: 100.0 mg/kg/injection, schedule: Q01DX009 (ip), vehicle: saline
  T/C: 103 % of control
dose: 200.0 mg/kg/injection, schedule: Q01DX009 (ip), vehicle: saline
  T/C: 101 % of control
dose: 400.0 mg/kg/injection, schedule: Q01DX009 (ip), vehicle: saline
  T/C: 98 % of control

## COC(=O)CC1(C(=O)OC)c2ccc3ccccc3c2N2CCCC21 (stereo unspecified)
[4]
  T/C: 102 % of control
dose: 200.0 mg/kg/injection, schedule: Q01DX001 (ip), vehicle: saline
  T/C: 100 % of control
dose: 400.0 mg/kg/injection, schedule: Q01DX001 (ip), vehicle: saline
  T/C: 100 % of control

## O=C1NC(=O)c2ccc3c4c(ccc1c24)C(=O)NC3=O
dose: 15.5 mg/kg/injection, schedule: Q01DX009 (ip), vehicle: saline with Tween-80
  T/C: 95 % of control
dose: 31.0 mg/kg/injection, schedule: Q01DX009 (ip), vehicle: saline with Tween-80
  T/C: 95 % of control
dose: 62.0 mg/kg/injection, schedule: Q01DX009 (ip), vehicle: saline with Tween-80
  T/C: 91 % of control

## C1CN1P1(N2CC2)=NP(N2CC2)(N2CC2)=NP(N2CC2)(N2CC2)=NP(N2CC2)(N2CC2)=N1
dose: 5.0 mg/kg/injection, schedule: Q01DX009 (ip), vehicle: saline
  T/C: 195 % of control
dose: 10.0 mg/kg/injection, schedule: Q01DX009 (ip), vehicle: saline
  T/C: 222 % of control

## N#CCc1c(F)c(F)c(F)c(F)c1F
dose: 30.0 mg/kg/injection, schedule: Q01DX005 (ip), vehicle: saline with Tween-80
  T/C: 100 % of control
dose: 60.0 mg/kg/injection, schedule: Q01DX005 (ip), vehicle: saline with Tween-80
  T/C: 99 % of control and 108 % of control

## CN(CCCl)C(=O)c1ccc([N+](=O)[O-])cc1
[5]
  T/C: 105 % of control
[6]
  T/C: 116 % of control
dose: 200.0 mg/kg/injection, schedule: Q01DX009 (ip), vehicle: saline with Tween-80
  T/C: 101 % of control

## CCOC(=O)c1[nH]cnc1/N=N/c1nc(O)c(C#N)[nH]1
dose: 60.0 mg/kg/injection, schedule: Q01DX005 (ip), vehicle: suspension in saline
  T/C: 97 % of control
dose: 120.0 mg/kg/injection, schedule: Q01DX005 (ip), vehicle: suspension in saline
  T/C: 100 % of control
dose: 240.0 mg/kg/injection, schedule: Q01DX005 (ip), vehicle: suspension in saline
  T/C: 100 % of control

## CCCCCCCCCC(=O)NC(CN1CCOCC1)C(=O)c1ccccc1 (stereo unspecified)
dose: 200.0 mg/kg/injection, schedule: Q04DX003 (ip), vehicle: saline
  T/C: 87 % of control
dose: 400.0 mg/kg/injection, schedule: Q04DX003 (ip), vehicle: saline
  T/C: 88 % of control

## CCc1nc(N)nc(N)c1-c1ccc([N+](=O)[O-])cc1
[1]
  T/C: 108 % of control
[2]
  T/C: 108 % of control

## CC(C)(C)c1cc(C(O)(C(F)(F)F)C(F)(F)F)c(S)c(C(O)(C(F)(F)F)C(F)(F)F)c1
dose: 3.12 mg/kg/injection, schedule: Q01DX005 (ip), vehicle: suspension in saline
  T/C: 103 % of control
dose: 6.25 mg/kg/injection, schedule: Q01DX005 (ip), vehicle: suspension in saline
  T/C: 103 % of control
dose: 12.5 mg/kg/injection, schedule: Q01DX005 (ip), vehicle: suspension in saline
  T/C: 103 % of control
dose: 25.0 mg/kg/injection, schedule: Q01DX005 (ip), vehicle: suspension in saline
  T/C: 110 % of control and 112 % of control

## Cc1ccc(Nc2nc(N)nc3nc(N)c(C(N)=O)nc23)cc1
dose: 25.0 mg/kg/injection, schedule: Q01DX009 (ip), vehicle: saline with Tween-80
  T/C: 100 % of control
[5]
  T/C: 100 % of control
[6]
  T/C: 91 % of control

## C=C(C)C(=O)OCCN(CC)CC
[1]
  T/C: 100 % of control
[2]
  T/C: 99 % of control
[3]
  T/C: 100 % of control

## COCC1CCCN1 (stereo unspecified)
dose: 100.0 mg/kg/injection, schedule: Q04DX002 (ip), vehicle: saline
  T/C: 104 % of control
dose: 200.0 mg/kg/injection, schedule: Q04DX002 (ip), vehicle: saline
  T/C: 110 % of control

## O=c1[nH]c(=O)n(C2CC(O)C(CS)O2)cc1F (stereo unspecified)
dose: 50.0 mg/kg/injection, schedule: Q01DX005 (ip), vehicle: Klucel (hydroxypropylcellulose) (HPC)
  T/C: 115 % of control
dose: 200.0 mg/kg/injection, schedule: Q01DX005 (ip), vehicle: Klucel (hydroxypropylcellulose) (HPC)
  T/C: 150 % of control and 159 % of control
dose: 400.0 mg/kg/injection, schedule: Q01DX005 (ip), vehicle: Klucel (hydroxypropylcellulose) (HPC)
  T/C: 186 % of control

## CCOc1ccc(N=Nc2c(C)nn(C(=S)SC)c2OCC)cc1
dose: 60.0 mg/kg/injection, schedule: Q01DX005 (ip), vehicle: Klucel + Tween-80
  T/C: 95 % of control
dose: 120.0 mg/kg/injection, schedule: Q01DX005 (ip), vehicle: Klucel + Tween-80
  T/C: 95 % of control
dose: 240.0 mg/kg/injection, schedule: Q01DX005 (ip), vehicle: Klucel + Tween-80
  T/C: 94 % of control

## Cc1cc(=O)[nH]c2c1C(=O)c1c(C)cc(=O)n(C)c1C2=O
dose: 0.5 mg/kg/injection, schedule: Q01DX009 (ip), vehicle: DMSO
  T/C: 99 % of control and 97 % of control
dose: 1.0 mg/kg/injection, schedule: Q01DX009 (ip), vehicle: DMSO
  T/C: 90 % of control
dose: 2.0 mg/kg/injection, schedule: Q01DX009 (ip), vehicle: DMSO
  T/C: 91 % of control
dose: 4.0 mg/kg/injection, schedule: Q01DX009 (ip), vehicle: DMSO
  T/C: 108 % of control

## COC(=O)C1(CC(=O)c2ccc(C)cc2)NC(=S)NC(=O)C1C#N (stereo unspecified)
dose: 60.0 mg/kg/injection, schedule: Q01DX005 (ip), vehicle: saline
  T/C: 100 % of control
dose: 120.0 mg/kg/injection, schedule: Q01DX005 (ip), vehicle: saline
  T/C: 104 % of control
dose: 240.0 mg/kg/injection, schedule: Q01DX005 (ip), vehicle: saline
  T/C: 100 % of control

## CS(=O)(=O)OCCN(CCOS(C)(=O)=O)c1ccc(C=Nc2ccc3oc(=O)ccc3c2)cc1
[5]
  T/C: 104 % of control
[6]
  T/C: 113 % of control
dose: 132.0 mg/kg/injection, schedule: Q04DX003 (ip), vehicle: saline with Tween-80
  T/C: 150 % of control
dose: 300.0 mg/kg/injection, schedule: Q04DX003 (ip), vehicle: saline with Tween-80
  T/C: 122 % of control

## CC1=C(c2ccccc2)CS1(=O)=O
dose: 100.0 mg/kg/injection, schedule: Q04DX002 (ip), vehicle: saline with Tween-80
  T/C: 101 % of control
dose: 200.0 mg/kg/injection, schedule: Q04DX002 (ip), vehicle: saline with Tween-80
  T/C: 99 % of control
dose: 400.0 mg/kg/injection, schedule: Q04DX002 (ip), vehicle: saline with Tween-80
  T/C: 110 % of control

## c1ccc2c(c1)ccc1c(NCCCCNc3c4ccccc4nc4c3ccc3ccccc34)c3ccccc3nc12
dose: 6.25 mg/kg/injection, schedule: Q01DX009 (ip), vehicle: saline with Tween-80
  T/C: 107 % of control
dose: 12.5 mg/kg/injection, schedule: Q01DX009 (ip), vehicle: saline with Tween-80
  T/C: 107 % of control

## CC1[N-]CCCN(CCN(C)C)CCC[N-]C(C)C2CCCC1[N-]2.[Ni+3].[O-][Cl+3]([O-])([O-])O (stereo unspecified)
[4]
  T/C: 106 % of control

## CCSC(=O)N1CCN(C(=O)SCC)CC1
dose: 12.5 mg/kg/injection, schedule: Q04DX003 (ip), vehicle: saline
  T/C: 100 % of control
dose: 25.0 mg/kg/injection, schedule: Q04DX003 (ip), vehicle: saline
  T/C: 100 % of control
dose: 50.0 mg/kg/injection, schedule: Q04DX003 (ip), vehicle: saline
  T/C: 101 % of control
dose: 100.0 mg/kg/injection, schedule: Q04DX003 (ip), vehicle: saline
  T/C: 108 % of control

## N#Cc1ccccc1N=Nc1nc(N)c(C(N)=O)[nH]1
dose: 100.0 mg/kg/injection, schedule: Q04DX003 (ip), vehicle: Klucel (hydroxypropylcellulose) (HPC)
  T/C: 100 % of control
dose: 200.0 mg/kg/injection, schedule: Q04DX003 (ip), vehicle: Klucel (hydroxypropylcellulose) (HPC)
  T/C: 103 % of control
dose: 400.0 mg/kg/injection, schedule: Q04DX003 (ip), vehicle: Klucel (hydroxypropylcellulose) (HPC)
  T/C: 100 % of control
